# Test results as given in publication PMC4869175, “Evidence that phytochrome functions as a protein kinase in plant light signalling” (Nature Communications, 2016).
# T1: PAS-GAF-PHY photosensory core of AsphyA (66-610aa) (Avena sativa, UniProt P06593 66-610, phycocyanobilin chromophore assembled (chromophore-binding site C322))
# T1 construct: Avena sativa phytochrome A, residues 66-610 (PAS-GAF-PHY photosensory core); also called the photosensory core; source: phycocyanobilin added in vitro
# T1 sequence (looked up): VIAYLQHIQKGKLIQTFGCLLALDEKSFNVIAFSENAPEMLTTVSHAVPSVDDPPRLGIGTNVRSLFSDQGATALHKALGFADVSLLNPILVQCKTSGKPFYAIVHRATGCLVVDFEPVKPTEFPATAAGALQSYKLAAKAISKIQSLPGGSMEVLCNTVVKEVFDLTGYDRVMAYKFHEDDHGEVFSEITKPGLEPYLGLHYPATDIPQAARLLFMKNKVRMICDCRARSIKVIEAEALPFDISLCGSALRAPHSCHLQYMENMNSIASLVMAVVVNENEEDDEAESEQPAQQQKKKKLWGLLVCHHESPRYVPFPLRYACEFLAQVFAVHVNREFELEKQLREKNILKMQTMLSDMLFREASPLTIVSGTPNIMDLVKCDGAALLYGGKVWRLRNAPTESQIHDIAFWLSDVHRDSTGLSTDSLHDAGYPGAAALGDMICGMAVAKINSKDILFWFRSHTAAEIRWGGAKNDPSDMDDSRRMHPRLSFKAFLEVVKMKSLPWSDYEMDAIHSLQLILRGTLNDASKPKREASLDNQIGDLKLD
# Legend:
# [1] = target: T2, D422R AsphyA mutant (full-length) (Avena sativa, UniProt P06593, D422R); experiment: Photoaffinity labelling with 8-azido-ATP (ATP-binding affinity assay); conditions: 5 μM 8-azido-ATP; labelling of WT AsphyA with 5 μM assumed as 100%
# T2 construct: After preparing purified full-length AsphyA mutants; made in house; host or cells: Pichia pastoris GS115
# Experimental: (§1) Figure 4 Phosphorylation analyses of AsphyA mutants with reduced kinase activity. (a) Kinase activity assays of the AsphyA mutants. In all, 1.0 μg of GST/strep-fused PIF3 (∼0.3 μM) was added as a substrate in reaction mixtures with 1.0 μg of either full-length WT or a mutant (K411L, T418D or D422R) AsphyA protein (∼0.2 μM). (b) Protein–protein interaction analysis between PIF3 and the AsphyA kinase mutants. GST was included as a negative control. (c) ATP-binding affinity assays of AsphyA kinase mutants using photoaffinity labelling with 8-azido-ATP. 1.0 μg of full-length AsphyA protein (∼80 nM) was labelled with the indicated concentrations of 8-azido-ATP. The percentages of 8-azido-ATP labeling were obtained where the labelling of WT AsphyA with 5 μM azido-ATP was assumed as 100%. Error bars represent s.d. from three independent measurements.
# (§2) To investigate ATP-binding to AsphyA proteins, photoaffinity labelling experiments were carried out using 8-N3-ATP-biotin-long chain-hydrazone (8-azido-ATP), which were purchased from Affinity Labeling Technologies, Inc. Purified phytochrome proteins (1.0 μg) were pre-incubated for 30 min on ice in 50 μl of photoaffinity labelling buffer (20 mM Tris-HCl, pH 7.0, 2 mM EDTA, 2 mM MgCl2 and 150 μM ATP), and then 8-azido-ATP was applied with indicated concentrations. […]
# (§3) Supplementary Figure 15. […] Full-length wild-type and mutant AsphyA proteins were labeled with the indicated concentrations of 8-azido-ATP, and the azido-ATP-labeled proteins were detected with avidin-HRP (upper panels).
# (§4) Amounts of AsphyA proteins (ca. 1.0 µg) used in these reactions are shown as loading controls in lower panels, which were analyzed using western blots with oat22 antibody.
# (§5) Phosphorylation analysis of the D422R mutant of A610 (DR/A610). […] Wild-type (A610) and DR/A610 mutant proteins were labeled with the indicated concentrations of 8-azido-ATP, and the 8-azido-ATP labeled proteins were detected with avidin-HRP (upper panel).
# [2] = target: T3, K411L AsphyA mutant (full-length) (Avena sativa, UniProt P06593, K411L); experiment: as above; conditions: 5 μM 8-azido-ATP; labelling of WT AsphyA with 5 μM assumed as 100%
# T3 construct: After preparing purified full-length AsphyA mutants; made in house; host or cells: Pichia pastoris GS115
# Experimental: as §1, §2, §3, §4, §5
# [3] = target: T4, T418D AsphyA mutant (full-length) (Avena sativa, UniProt P06593, T418D); experiment: as above; conditions: 5 μM 8-azido-ATP; labelling of WT AsphyA with 5 μM assumed as 100%
# T4 construct: After preparing purified full-length AsphyA mutants; made in house; host or cells: Pichia pastoris GS115
# Experimental: as §1, §2, §3, §4, §5
# [4] = target: T1, PAS-GAF-PHY photosensory core of AsphyA …; experiment: pull-down; GST/strep-fused interacting protein (1.0 μg) held on glutathione resin, phytochrome (1.0 μg) in solution, Pr and Pfr forms both tested; 60 min at 4 °C in pull-down buffer (100 mM Tris-HCl pH 7.8, 1 mM EDTA, 150 mM NaCl, 100 μg/ml BSA); western blot with oat22 and anti-GST; conditions: both partners purified
# T3 sequence (P06593 whole entry K411L): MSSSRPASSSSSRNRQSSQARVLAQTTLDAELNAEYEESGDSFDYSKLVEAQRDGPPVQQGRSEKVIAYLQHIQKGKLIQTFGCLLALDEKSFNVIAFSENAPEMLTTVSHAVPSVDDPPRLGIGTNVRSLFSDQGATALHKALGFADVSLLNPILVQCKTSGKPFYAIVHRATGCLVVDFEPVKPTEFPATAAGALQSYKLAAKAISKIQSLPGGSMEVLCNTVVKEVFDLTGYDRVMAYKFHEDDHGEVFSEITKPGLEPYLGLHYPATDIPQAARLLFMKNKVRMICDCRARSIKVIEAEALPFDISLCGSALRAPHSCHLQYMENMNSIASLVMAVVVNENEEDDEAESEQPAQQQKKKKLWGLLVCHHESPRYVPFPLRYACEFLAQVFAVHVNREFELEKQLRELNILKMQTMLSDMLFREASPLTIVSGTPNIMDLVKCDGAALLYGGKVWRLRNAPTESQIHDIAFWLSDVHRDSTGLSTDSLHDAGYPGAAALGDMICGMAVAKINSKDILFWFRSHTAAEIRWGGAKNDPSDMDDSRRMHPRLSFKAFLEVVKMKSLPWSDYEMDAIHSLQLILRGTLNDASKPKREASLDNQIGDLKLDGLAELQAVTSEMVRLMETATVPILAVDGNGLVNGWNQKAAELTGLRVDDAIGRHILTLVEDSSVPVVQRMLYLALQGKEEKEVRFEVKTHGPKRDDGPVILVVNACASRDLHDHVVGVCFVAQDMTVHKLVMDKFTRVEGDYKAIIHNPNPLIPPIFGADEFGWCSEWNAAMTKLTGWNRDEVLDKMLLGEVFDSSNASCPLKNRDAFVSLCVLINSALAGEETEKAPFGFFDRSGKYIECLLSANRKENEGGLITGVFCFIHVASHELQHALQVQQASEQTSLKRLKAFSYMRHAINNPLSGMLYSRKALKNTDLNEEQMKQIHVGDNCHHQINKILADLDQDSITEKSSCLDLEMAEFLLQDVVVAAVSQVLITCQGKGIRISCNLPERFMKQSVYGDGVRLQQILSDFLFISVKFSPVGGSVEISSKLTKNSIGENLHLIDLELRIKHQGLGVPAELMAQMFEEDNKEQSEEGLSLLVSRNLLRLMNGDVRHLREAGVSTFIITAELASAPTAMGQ
# T2 sequence (P06593 whole entry D422R): as the sequence (P06593 whole entry K411L) above, with L411K, D422R counted along it
# T4 sequence (P06593 whole entry T418D): as the sequence (P06593 whole entry K411L) above, with L411K, T418D counted along it
molecule,measurement,setting,value
8-N3-ATP-biotin-long chain-hydrazone [8-azido-ATP],"8-azido-ATP labelling, % of the WT AsphyA",[1],~5%
same,"8-azido-ATP labelling, % of the WT AsphyA",[2],~30%
same,"8-azido-ATP labelling, % of the WT AsphyA",[3],~17%
"GST/strep-fused PIF3 (natural protein, UniProt O80536 1-524, looked up, Probably Arabidopsis PIF3, as PIF1 and PIF4 are called Arabidopsis; not shown: GST, N-terminal, kept) MPLFELFRLTKAKLESAQDRNPSPPVDEVVELVWENGQISTQSQSSRSRNIPPPQANSSRAREIGNGSKTTMVDEIPMSVPSLMTGLSQDDDFVPWLNHHPSLDGYCSDFLRDVSSPVTVNEQESDMAVNQTAFPLFQRRKDGNESAPAASSSQYNGFQSHSLYGSDRARDLPSQQTNPDRFTQTQEPLITSNKPSLVNFSHFLRPATFAKTTNNNLHDTKEKSPQSPPNVFQTRVLGAKDSEDKVLNESVASATPKDNQKACLISEDSCRKDQESEKAVVCSSVGSGNSLDGPSESPSLSLKRKHSNIQDIDCHSEDVEEESGDGRKEAGPSRTGLGSKRSRSAEVHNLSERRRRDRINEKMRALQELIPNCNKVDKASMLDEAIEYLKSLQLQVQIMSMASGYYLPPAVMFPPGMGHYPAAAAAMAMGMGMPYAMGLPDLSRGGSSVNHGPQFQVSGMQQQPVAMGIPRVSGGGIFAGSSTIGNGSTRDLSGSKDQTTTNNNSNLKPIKRKQGSSDQFCGSS",binding result,[4],binds
